Experimental findings from patent US4937373A, “Substituted naphthalene carboxylic acids” (Hoffmann-La Roche Inc., priority 1988, dated 1990) are described below.

Molecules are shown by their SMILES.

Experiment [1] has as its system cyclooxygenase (CO) pathway, PGE2 formation in rat peritoneal macrophages. In words: Rat peritoneal macrophage assay, in vitro: PGE2 formation (CO pathway). The experiment is classed as cell-based. The settings on record: stimulated with calcium ionophore A 23187 (5×10^-7 M), PGE2 by radioimmunoassay. The text has this:
(§1) RAT PERITONEAL MACROPHAGE ASSAY, IN VITRO
(§2) The rat peritoneal macrophage assay measures the ability of a test compound to influence the release of arachidonic acid (AA) from phospholipid stores in the plasma membrane and the subsequent metabolism of AA by the Δ^5 -lipoxygenase (5-LO) and cyclooxygenase (CO) pathways to the final products excreted by the cells: leukotriene B4 (LTB4, from the 5-LO pathway) and prostaglandin E2 (PGE2, from the CO pathway).
(§3) Macrophages were obtained form rats by peritoneal lavaqe with phosphate buffered saline minus Ca^+2 and Mg^+2 (PBS). Cells were washed 3 times with PBS and resuspended in Delbecco's Modified Eagle medium (Gibco Laboratories) containing L-glutamine and D-glucose and supplemented with 10% fetal calf serum. Cells were counted on a Coulter ZBA cell counter and then resuspended to a concentration of 4×10^6 cells/mL. Three mL of the cell suspension were added to plastic culture dishes (3 cm), and then the cells were allowed to adhere for 90 minutes at 37° C. Dishes were washed 3 times with PBS to remove nonadherent cells. ^14 C-AA (ca. […]) were added to the cells (1 μCi/dish) and allowed to incorporate for 90 minutes. Unincorporated ^14 C-AA was removed and the cell layer was again washed 3 times with PBS. Test compounds were dissolved in DMSO and diluted in phosphate-buffered Hank's balanced salt solution to appropriate concentrations. Cells were incubated with test compounds or the solution used to dissolve the test compounds (control) for 30 minutes at 37° C. and were then stimulated with calcium ionophore A 23187 (5×10^-7 M) for 20 minutes. The extracellular fluid was removed and ^14 C radioactivity released into this fluid from AA metabolism was measured by liquid scintillation spectroscopy. The amounts of LTB4 and PGE2, were measured in the extracellular fluid by radioimmunoassay with specific antisera. The effect of a test compound or standard was calculated as a percent inhibition of the maximum effect produced in the presence of A 23187 and expressed as an inhibitory concentration 50% IC50).
(§4) This assay measures inhibition by the test compounds of the 5-LO and the CO pathways of AA metabolism and this inhibition is expressed as an IC50 for LTB4 and PGE2 formation respectively.

Experiment [2] has as its system Rat Acetic Acid Colitis Model. In words: Acetic acid-induced colitis in rats, in vivo (myeloperoxidase accumulation). Also on record: species or system rat (Sprague-Dawley). The source says: ACETIC ACID-INDUCED COLITIS IN RATS, IN VIVO
The rat acetic acid induced colitis bioassay has been described by J. E. Krawisz, et al. in Amer. J. Proc. Gastro. Col. Rec. Surg. 31: 11-18 (1980), and by P. Sharon and W. F. Stenson in Gastroenterology 88: 55-63 (1985) and 86: 453-460 (1984). Acetic acid-induced colitis is characterized by the movement of inflammatory cells into the colon, with the number of such cells in the mucosa being measured by the activity of myeloperoxidase, a marker enzyme for these cells. Positive desirable activity is indicated by a reduction in the high levels of myeloperoxidase caused by acetic acid. Male rats (Sprague-Dawley), weighing 150 to 300g, were pretreated twice daily for two days with either the vehicle (water, or dimethylsulfoxide) or the test inhibitor compound suspended in water or dissolved in dimethylsulfoxide and orally administered. On the third day, the animals were dosed the same as on the previous two days, anesthetized with metofane, and 2 ml of 2.5% acetic acid was injected by syringe into the colonic lumen, followed immediately by 3 ml of air and a rinse consisting of 3 ml of phosphate-buffered saline (the acetic acid is present in the lumen for a sufficient period to cause inflammation without producing severe necrosis or irreversible damage). The animals were administered a second dose of the test compound in the same amount about 16 hours later. 24 hours after the acetic acid treatment, the animals were sacrificed, the colonic mucosa was surgically removed and homogenized in an aqueous buffer at pH 6 with a Tissumizer or similar device and myeloperoxidase was measured in the homogenate using o-phenylenediamine as a chromagen, as described by A. Voller, D. E. Bidwell and A. Bartlett in The Enzyme Linked Immunosorbent Assay (ELISA), Zoological Soc., London 1979, pages 29-30. Control animals were pretreated with the vehicle and saline in place of acetic acid.

Experiment [3] has as its system Δ^5 -lipoxygenase (5-LO) pathway, LTB4 formation in rat peritoneal macrophages. In words: Rat peritoneal macrophage assay, in vitro: LTB4 formation (5-LO pathway). Conditions: stimulated with calcium ionophore A 23187 (5×10^-7 M), LTB4 by radioimmunoassay. Type of experiment: cell-based.
From the text: as §1, §2, §3, §4

For experiment [4], the system named is rat peritoneal macrophages (^14 C-arachidonic acid release). In words: Rat peritoneal macrophage assay, in vitro: ^14 C release from arachidonic acid metabolism. Type of experiment: cell-based. The settings on record: stimulated with calcium ionophore A 23187 (5×10^-7 M), ^14 C released.
From the text: as §1, §2, §3, §4

In experiment [5] the target is T1, Δ^5 lipoxygenase from rat basophilic leukemia (RBL-1 cells) (Rattus norvegicus, UniProt P12527).
T1 construct: the resulting supernatant fraction was used as the source of Δ^5 -lipoxygenase; endogenous in cells; host or cells: RBL-1 rat basophilic leukemia cells (supernatant of the homogenate after 49,000 g)
T1 sequence (P12527 1-673): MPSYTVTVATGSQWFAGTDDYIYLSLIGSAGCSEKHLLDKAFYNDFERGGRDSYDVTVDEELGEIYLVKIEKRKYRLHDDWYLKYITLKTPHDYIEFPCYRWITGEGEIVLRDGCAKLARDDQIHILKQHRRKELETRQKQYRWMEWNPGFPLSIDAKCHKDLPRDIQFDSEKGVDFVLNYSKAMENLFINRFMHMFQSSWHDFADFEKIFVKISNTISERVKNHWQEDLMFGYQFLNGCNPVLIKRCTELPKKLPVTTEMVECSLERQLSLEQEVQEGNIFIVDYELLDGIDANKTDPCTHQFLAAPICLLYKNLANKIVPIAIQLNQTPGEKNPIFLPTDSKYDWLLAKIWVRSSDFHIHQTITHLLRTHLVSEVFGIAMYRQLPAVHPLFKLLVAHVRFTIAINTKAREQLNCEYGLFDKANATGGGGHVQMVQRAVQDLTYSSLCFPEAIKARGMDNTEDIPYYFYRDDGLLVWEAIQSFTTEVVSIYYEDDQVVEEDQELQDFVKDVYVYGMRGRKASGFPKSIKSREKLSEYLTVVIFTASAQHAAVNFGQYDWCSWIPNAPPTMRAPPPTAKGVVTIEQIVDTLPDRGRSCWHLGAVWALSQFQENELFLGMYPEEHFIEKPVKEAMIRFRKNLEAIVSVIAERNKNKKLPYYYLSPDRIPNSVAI
As to the kind of experiment: In vitro test for Δ^5-lipoxygenase inhibitors. Type of experiment: biochemical. The settings on record: RBL-1 supernatant enzyme, 6.7 μM [1-^14 C]arachidonic acid, 10 min preincubation; read-out: IC50 value, Δ^5-lipoxygenase inhibition. The method, then:
IN VITRO TEST FOR Δ^5 -LIPOXYGENASE INHIBITORS
In this procedure a compound is tested for its effect on Δ^5 lipoxygenase from rat basophilic leukemia (RBL-1 cells). The activity of this enzyme was determined by measuring the catalytic conversion of [1-^14 C]arachidonic acid to [1-^14 C-5-hydroperoxy- 6,8,11,14-eicosatetraenoic acid ([1-^14 C]-5-HPETE) which leads to the formation of the 5-hydroxy derivative ([1-^14 C]-5-HETE). The Δ^5 -lipoxygenase was derived from the supernatant fraction of lysed RBL-1 cells using a modification of the method previously described by Jakschik and Lee [Nature 287,51 (1980)]. Briefly, RBL-1 cells were lysed by homogenization in ice-cold buffer (50 mM Tris-HCl buffer. PH 7.2, containing 1 mM EDTA and 14 μM indomethacin). The homogenate was centrifuged at 4° at 49,000 g for 20 minutes and the resulting supernatant fraction was used as the source of Δ^5 -lipoxygenase. […] The ethereal extract containing [1-^14 C]-5-HETE and unreacted substrate was analyzed by silica gel TLC using isooctanemethylethyl ketone-acetic acid (100:9:1) as the developing solvent. […] The effect of an inhibitor on Δ^5 -lipoxygenase activity is determined by preincubating the enzyme for 10 minutes at 30° in the presence or absence of various concentrations of the drug prior to addition of substrate. […]

For `CCOC(=O)[C@@H](C)c1ccc2cc(OCCCCCCc3cccc(O)c3O)ccc2c1` [(S)-6-[6-(2,3-Dihydroxyphenyl)hexyloxy]-alpha-methyl-2-naphthaleneacetic acid ethyl ester], the results for the IC50 in experiment [1], in experiment [3] and in experiment [4] were 4 µM, 0.6 µM and 3 µM, respectively. In experiment [2] (10 mg/kg po), the “% Inhibition of Myeloperoxidase Accumulation” value (from here on “% Inhibition”) came to 23 ± 5%.
On the same counts, the results for `C[C@H](C(=O)O)c1ccc2cc(OCCCCCCc3ccc(O)c(O)c3)ccc2c1` [(S)-6-[6-(3,4-dihydroxyphenyl)hexyloxy]-alpha-methyl-2-naphthaleneacetic acid] are 3 µM, 0.6 µM, 1 µM and 13 ± 2%.
Take `O=C(O)Cc1ccc2cc(OCCCCCCc3cccc(O)c3O)ccc2c1` [6-[6-(2,3-dihydroxyphenyl)hexyloxy]-2-naphthalene acetic acid]: the IC50 was 5 µM in experiment [1], 0.9 µM in experiment [3] and 3 µM in experiment [4]. Moreover, in experiment [2] (1 mg/kg po), the “% Inhibition” value is reported as 72 ± 8%.
In the case of `C[C@H](C(=O)O)c1ccc2cc(OCCCCCCc3cccc(O)c3O)ccc2c1` [(S)-6-[6-(2,3-dihydroxyphenyl)hexyloxy]-alpha-methyl-2-naphthaleneacetic acid], the IC50 in experiment [1] stood at 1 µM; in experiment [3], 0.2 µM; in experiment [5], 0.012 µM; in experiment [4], 0.9 µM. The “% Inhibition” value in experiment [2] (1 mg/kg po) was 90 ± 11%.
Take `O=C(O)c1ccc2cc(OCCCCCCc3cccc(O)c3O)ccc2c1` [6-[6-(2,3-Dihydroxyphenyl)hexyloxy]-2-naphthalenecarboxylic acid]: the 50% inhibitory concentration (IC50) in experiment [1] amounted to 9 µM; in experiment [3] it was 3 µM; in experiment [4], 3 µM. Moreover, the “% Inhibition” value in experiment [2] (1 mg/kg po) is 72 ± 8%.
For `CC(C(=O)O)c1ccc2cc(OCCCCCCc3cccc(O)c3O)ccc2c1` (racemic) [(rac)-6-[6-(2,3-Dihydroxyphenyl)hexyloxy]-alpha-methyl-2-naphthalene-aceticacid], the IC50 in experiment [1] stood at 3 µM; in experiment [3], 0.6 µM; in experiment [4], 1 µM. In addition, the “% Inhibition” value in experiment [2] (10 mg/kg po) is listed as 88 ± 17%.

Broadly, the IC50 is the concentration that inhibits the measured activity by half.
